17 molecules from ChEMBL document CHEMBL4002613, “Shape-based virtual screening, synthesis and evaluation of novel pyrrolone derivatives as antiviral agents against HCV” (Bioorg Med Chem Lett, 2017) can be followed below.

Data set [1] is described as follows: Selectivity index, ratio of CC50 for human HuH5.2 cells to EC50 for Hepatitis C virus genotype 1b infected in human HuH5.2 cells. Type of data set: toxicity, cell-based. To be noted: for selectivity ratio: HuH5.2 cells, read-out: Ratio CC50/EC50.
The nature of data set [2]: (§1) Cytotoxicity against human HuH5.2 cells assessed as anti-metabolic effect after 72 hrs by MTT assay. Type of data set: ADME, cell-based, Huh-5-2. To be noted: HuH5.2 (Huh-5-2) cells.
A further data set deals with Hepatitis C virus. The experiment in a line: Antiviral activity against Hepatitis C virus genotype 1b infected in human HuH5.2 cells after 72 hrs by luciferase reporter gene assay. Type of data set: functional, cell-based, Hepacivirus hominis.
Data set [3] in a line: Inhibition of Hepatitis C virus genotype 1b NS3 helicase unwinding activity using fluorescent DNA substrate by molecular beacon assay. Also noted: species or system Hepatitis C virus subtype 1b.
Data set [4] is described as follows: Inhibition of Hepatitis C virus genotype 1b Con1 NS3 helicase ATP hydrolysis activity using ATP as substrate in presence of poly U RNA. Also noted: species or system Hepatitis C virus (isolate Con1).
Another data set relates to Huh-5-2. The description is as §1. Type of data set: ADME, cell-based. Particulars: huh-5-2, 72 h, 72 h.
[5] abbreviates: Hepatitis C virus, genotype 1b, Huh-5-2, 72 h.

As to `N=c1c(S(=O)(=O)c2ccc(Cl)cc2)cc2c(=O)n3ccccc3nc2n1CCN1CCOCC1`, in data set [1], the selectivity ratio stood at 5.4. Further, in data set [2], the half-maximal cytotoxic concentration (CC50) (as a rule, the concentration giving 50% cytotoxicity) at 72 h stood at 151 µM. In the data set on Hepatitis C virus (setting [5]), a half-maximal response (EC50) required 28 µM and the 90% effect concentration (EC90) (as a rule, the point of the concentration-response curve where the effect stands at 90%) is 97.6 µM.

Take `Cc1ccc2nc(-c3ccc4nc(-c5ccc(N)cc5)sc4c3)sc2c1S(=O)(=O)O`: in data set [3], the IC50 (in general, the concentration that inhibits the measured activity by half) turned out to be 10 µM.

Take `Oc1c(CN2CCOCC2)cc(CN2CCOCC2)cc1CN1CCOCC1`: in data set [2], the CC50 at 72 h is greater than 255 µM. In the data set on Hepatitis C virus (setting [5]), the EC50 (commonly the concentration needed to bring the measured effect to its halfway point) was greater than 255 µM and the EC90 is greater than 255 µM.

On to `CCOC(=O)c1ccc(/C=C2/C=C(c3ccccc3)N(c3ccc(C)cc3C)C2=O)cc1`, for which the concentration for half-maximal inhibition (IC50) in data set [3] was greater than 1000 µM. The selectivity ratio in data set [1] is 2.1 to 58.8. For the same molecule, in data set [2], the 50% cytotoxic concentration (CC50) at 72 h lay in the range of 47 to 90.8 µM. Moreover, the EC50 in the data set with Hepatitis C virus (setting [5]) lay within 0.8 to 43.1 µM.

The molecule `CCOC(=O)c1ccc(/C=C2/C=C(c3ccccc3)N(c3ccccc3)C2=O)cc1` displayed a half-maximal inhibitory concentration (IC50) in data set [3] greater than 1000 µM. The selectivity ratio in data set [1] was found to be 4. Moreover, the CC50 at 72 h in data set [2] turned out to be 112 µM. Moreover, in the data set with Hepatitis C virus (setting [5]), the EC50 came out at 27.2 µM and the 90% effect level (EC90) was put at 100 µM.

On to `CN1CCN(CC2=C(O)C(=O)N(CCc3ccccc3)C3C=CC=CN23)CC1` (configuration not stated), for which the 50% cytotoxic concentration (CC50) at 72 h in data set [2] was greater than 264 µM. For the same molecule, in the data set on Hepatitis C virus (setting [5]), the EC50 was 235 µM and the concentration for an effect of 90% (EC90) was greater than 264 µM.

In the case of `Cc1ccc(N2C(=O)/C(=C\c3ccccc3)C=C2c2ccccc2)c(Br)c1`, the IC50 in data set [3] was greater than 1000 µM. For the same molecule, in data set [1], the selectivity ratio was greater than 58. The 50% cytotoxic concentration (CC50) at 72 h in data set [2] was greater than 240 µM. The IC50 in data set [4] amounted to 620 µM. In the data set on Hepatitis C virus (setting [5]), this molecule yielded an EC50 of 4.1 µM and an EC90 of 12.4 µM.

For the molecule `O=C1/C(=C\c2ccc(Br)cc2)C=C(c2ccccc2)N1c1ccccc1`, the IC50 in data set [3] is greater than 1000 µM. Besides, the selectivity ratio in data set [1] is 6. In data set [2], the half-maximal cytotoxic concentration (CC50) at 72 h stood at 25.7 µM. In the data set on Hepatitis C virus (setting [5]), this molecule had a concentration giving a half-maximal response (EC50) of 4.3 µM and a 90% effect concentration (EC90) of 11.6 µM.

With `O=C1/C(=C\c2ccc(-c3ccccc3)cc2)C=C(c2ccccc2)N1c1ccccc1`, the concentration for half-maximal inhibition (IC50) in data set [3] is greater than 1000 µM. The selectivity ratio in data set [1] was 9.7. In data set [2], the CC50 at 72 h amounted to 156 µM. In the data set with Hepatitis C virus (setting [5]), it took 16.1 µM to reach a half-maximal effect (EC50) and the EC90 was 61.7 µM.

On to `CN(C)c1ccc(/C=C2\C(=O)N(c3ncc(-c4ccc(Cl)cc4)s3)N=C2c2ccccc2)cc1`, for which, in data set [1], the selectivity ratio was greater than 1.4. In data set [2], the CC50 at 72 h was greater than 206 µM. In the data set on Hepatitis C virus (setting [5]), the response was half-maximal at 147 µM (EC50) and the EC90 was greater than 206 µM.

Consider `O=C1/C(=C\c2ccccc2)C=C(c2ccccc2)N1c1ccccc1`, for which, in data set [3], the IC50 is greater than 1000 µM. Besides, the selectivity ratio in data set [1] was 6.4. The CC50 at 72 h in data set [2] was determined as 30.3 µM. In the data set on Hepatitis C virus (setting [5]), this molecule showed an EC50 of 4.7 µM and an EC90 of 14 µM.

In the case of `COc1ccc(/C=C2/C=C(c3ccccc3)N(c3ccccc3)C2=O)cc1`, the half-inhibitory concentration (IC50) in data set [3] was determined as 438 µM. The selectivity ratio in data set [1] was 18. In data set [2], the CC50 at 72 h worked out at 97.2 µM. In the data set on Hepatitis C virus (setting [5]), this molecule registered an EC50 of 5.9 µM and an EC90 of 21.6 µM.

In data set [3], `CCOC(=O)c1ccc(/C=C2/C=C(c3ccccc3)N(c3ccc(C)cc3)C2=O)cc1` had an IC50 greater than 1000 µM. In addition, the selectivity ratio in data set [1] was greater than 11. Also, the CC50 at 72 h in data set [2] was greater than 244 µM. Moreover, in the data set on Hepatitis C virus (setting [5]), it took 22.5 µM to reach a half-maximal effect (EC50) and the EC90 was 81.1 µM.

As for `CN1CCN(Cc2c3c(c(CN4CCN(C)CC4)c4c2CCC4)CCC3)CC1`, in data set [1], the selectivity ratio was 4.8. In addition, the cytotoxic concentration (CC50) at 72 h in data set [2] was determined as 36.9 µM. Besides, the 50% effective concentration (EC50) with Hepatitis C virus (setting [5]) worked out at 7.7 µM.

As to `CCOC(=O)c1ccc(/C=C2\C=C(c3ccccc3)N(c3ccc(C)cc3Br)C2=O)cc1` (stereo in doubt; form 1), the CC50 at 72 h in data set [2] fell in the range of 204 to 205 µM. Further, in the data set with Hepatitis C virus, it took 149 µM to reach the 90% level (EC90). The same molecule came in with a half-maximal effective concentration (EC50) in the data set on Hepatitis C virus (setting [5]) of 38 to 38.3 µM.

As to `CCOC(=O)c1ccc(/C=C2\C=C(c3ccccc3)N(c3ccc(C)cc3Br)C2=O)cc1` (stereo in doubt; form 2), the IC50 in data set [3] was greater than 1000 µM. Moreover, the “Ratio CC50/EC50” value in data set [1] was greater than 10. The CC50 with Huh-5-2 is greater than 205 µM. In the data set on Hepatitis C virus, this molecule returned an EC50 of 20.3 µM and a 90% effect concentration (EC90) of 61.7 µM.

`O=C(O)C1=CC(=C(c2ccc(O)c(C(=O)O)c2)c2ccc(O)c(C(=O)O)c2)C=CC1=O` [AURINTRICARBOXYLIC ACID]: in data set [3], the concentration for half-maximal inhibition (IC50) was 0.3 µM.
